Experimental data published in patent publication US20210379009A1, “ANTIBACTERIAL AGENT AGAINST ENTEROBACTERIUM WHICH CONTAINS EQUOL AS ACTIVE INGREDIENT” (priority 2018, published 2021).

Experiments:
Assay type in all cases: cell-based
[1] = test system: Clostridioides difficile (NAP1/027 strain); assay: Growth inhibition on Clostridioides difficile NAP1/027 strain (OD600); settings: for inhibition of the growth of Clostridioides difficile versus control: FIG. 2
Protocol: Clostridioides difficile (NAP1/027 strain) was added to a medium containing equol in a concentration of 100 μg/mL, 75 μg/mL, 50 μg/mL, or 25 μg/mL (0 hour), and subsequently cultured to check the influence on the growth for 24 hours after the start of culture. The culture performed was totally under anaerobic conditions at 35° C.
Because equol dissolved in DMSO was used, a medium with addition only of DMSO was additionally subjected to measurement as a control.
The growth of the bacterium was examined by measuring the absorbance of each medium at 600 nm (OD600).
Equol is a final product generated from daidzin through daidzein and dihydrodaidzein. Inhibition of the growth of Clostridioides difficile by equol (100 μg/mL, 50 μg/mL), daidzein (50 μg/mL), and dihydrodaidzein (100 μg/mL, 50 μg/mL) was measured in the same manner as in Example 1.

[2] = test system: Bacteroides fragilis (B. fragilis); assay: Growth inhibition on other bacterial species: Bacteroides fragilis; settings: 100 μg/mL
[3] = test system: Clostridioides perfringens (C. perfringens (Clostridium perfringens)); settings: 100 μg/mL; FIG. 4
Clostridioides difficile = assay: Inhibition of sporulation of Clostridioides difficile (spore count); settings: 100 μg/mL; added to medium grown to a saturated state; from day 2; FIG. 6
Protocol: To validate the influence of equol (100 μg/mL) on the sporulation of Clostridioides difficile, equol was added to a medium in which Clostridioides difficile had grown to a saturated state, and the number of spores formed was counted.

[4] = test system: Escherichia coli (E. coli); assay: Growth inhibition on other bacterial species: Escherichia coli; settings: 100 μg/mL; FIG. 4
[5] = test system: Clostridioides difficile (NAP1/027 strain); assay: Influence on form of Clostridioides difficile (Gram staining); settings: 100 μg/mL; after 8-day culture; FIG. 5
Protocol: The influence of equol on the form of Clostridioides difficile (NAP1/027 strain) was validated through staining of Clostridioides difficile with Gram staining under the action of equol (100 μg/mL) in the same manner as in Example 1.

SMILES	inhibition of the growth of Clostridioides difficile versus control ([1]; 50 μg/mL)	inhibition of the growth of Clostridioides difficile versus control ([1]; 100 μg/mL)	concentration dependence of growth inhibition ([1]; equol 25 to 100 μg/mL, FIG. 1)	growth of Clostridioides difficile (OD600) versus control ([1]; equol 100, 75, 50 or 25 μg/mL, 24 hours, anaerobic, 35° C., DMSO control, FIG. 1)	proliferation of Bacteroides fragilis ([2]; 52 hours of the test, FIG. 4)	viability of Bacteroides fragilis after transfer into a medium without equol ([2]; transferred at the end of 52 hours of the test)	influence on growth of Clostridioides perfringens [3]	number of spores formed versus control (Clostridioides difficile)	influence on growth of Escherichia coli [4]	form of cells (Gram staining) versus control [5]
Oc1ccc([C@H]2COc3cc(O)ccc3C2)cc1 (stereo in doubt) [equol, 4′,7-isoflavandiol]	inhibited the growth of Clostridioides difficile to the same degree	an even higher degree of inhibition than them	the inhibition depended on the concentration of equol	slower than that in the control	completely no proliferation	only the growth was inhibited, without killing the bacterium	An influence was observed	few spores	no influence was found	forms longer and thinner than those of cells in the control
O=c1c(-c2ccc(O)cc2)coc2cc(O)ccc12 [daidzein, reference compound]	no clear difference from the control	–	–	–	–	–	–	–	–	–
O=C1c2ccc(O)cc2OCC1c1ccc(O)cc1 (stereo not shown) [dihydrodaidzein, reference compound]	no clear difference from the control	inhibited the growth of Clostridioides difficile to the same degree	–	–	–	–	–	–	–	–
